Source: patent publication US20210379094A1, “METHOD FOR REDUCING DRUG-INDUCED NEPHROTOXICITY” (Yissum Research Development Company of the Hebrew …, priority 2019, published 2021)
Values joined by “and” are separate entries in the source; they are usually repeats but may differ in a detail not shown here. Equal entries are not always repeated.

What was measured:
Type in all cases: cell-based, human
[1] = test system: HK-2 proximal tubule cells; assay: Glucose accumulation assay (2-NDBG); conditions: for 2-NBDG fluorescence: concentrations a thousand-fold under the threshold of cellular damage
Experimental: To monitor glucose uptake in cells, a fluorescent analog of glucose 2-(N-(7-Nitrobenz-2-oxa-1,3-diazol-4-yl) Amino)-2-Deoxyglucose (2-NDBG), (Invitrogen, CA, USA) was used. After overnight drug exposure, the medium was removed and replaced with Dulbecco's Phosphate Buffered Saline (Sigma, USA) with 17 mM and 6 mM of 2-NDBG to match glucose concentration of HK-2 and RPTEC culture medium respectively, incubated for 1 hour at 37° C., 5% CO2 before imaging. 2-NDBG is taken up in mammalian cells by GLUT-2, if its activity or shuttling is disturbed, 2-NDBG will accumulate in the cells, showing higher green intensity.

HK-2 organoids [2] = assay: Metabolic flux analysis (glucose, lactate, glutamine, oxygen) of perfused organoids; conditions: for ATP production drop / Lipogenesis increase / glycolysis drop: 31 hours exposure to sub-toxic concentration (12.5 μM Cyclosporine A, 32 μM Cisplatin, 32 mM Gentamicin)
Experimental: Amperometric glucose and lactate sensors were purchased from Innovative Sensor Technology (IST, Switzerland). […] Both sensors produce H2O2 in amounts proportional to the measured metabolite, which is detected with platinum electrodes under polarized condition. […] Measurements were carried out and calibrated to sensitivity decrease by on-chip potentiostat (IST, Switzerland). Glucose uptake, oxygen uptake, and lactate production rates were measured by calculating the change in metabolite concentration between the bioreactor in- and outflow as a function of perfusion rate and cell number. Metabolic rates were calculated assuming negligible contribution to oxygen uptake by fatty acid oxidation and enzymatic activity. […] Based on these assumptions, oxidative phosphorylation flux was calculated by dividing the oxygen uptake rate by six. It was estimated that 32 ATP molecules were generated by complete oxidation of one molecule of glucose. Glycolysis flux was calculated by dividing lactate production rate by two, with maximal rate defined by glucose uptake rate minus the oxidative phosphorylation flux. ATP production in glycolysis was estimated to be two molecules per molecule of glucose. It was assumed that any glucose left over was directed toward lipogenesis, because the contribution of pentose phosphate pathway in non-proliferating cells is minor. […] ATP production in glutaminolysis was estimated to be three molecules per molecule of lactate generated.

HK-2 organoids [3] = assay: Real-time oxygen uptake / time to onset in perfused organoid bioreactor; conditions: for Oxygen uptake drop: after 33 hours continuous perfusion, 12.5 μM Cyclosporine A, 32 μM Cisplatin, 32 mM Gentamicin
Experimental: Polydimethylsiloxane (PDMS) microwell inserts were sterilized with 70% EtOH and 30-min exposure to UV light prior to cell seeding. Kidney cells were trypsinized, counted, and centrifuged at 300×g for 5 min at 4° C. […] Then, 1.35 μl of Matrigel® suspension containing cells and oxygen-sensing beads was seeded in each well using […] M P10M (Gilson, UK). The inoculated microwell insert was then incubated for 30 min at 37° C. to polymerize the gel. Following polymerization, the insert was immersed in 3 ml of cell culture medium and incubated overnight at 37° C. prior to being sealed in the bioreactor housing. Bioreactors were then placed in a climate control chamber on an IX81 fluorescence microscope (Olympus, Japan). Bioreactors were continuously perfused with cell culture medium noted above supplemented with 10 mM HEPES and 1% DMSO at a flow rate of 5 μL/min. Drug induction started upon metabolic stabilization. Stabilization was assessed by daily measurements of oxygen and metabolites.
Real-time oxygen measurements were performed optically using on-chip lifetime-based luminescence quenching (LBLQ). […] Oxygen acts as a quencher, leading to a decrease in decay time and signal intensity with increasing concentration. We chose to measure decay time, rather than signal intensity, as it is not sensitive to changes in probe concentration or excitation intensity over the course of the experiment. […] To accurately measure decay time, we chose phase modulation in which sinusoidal amplitude-modulated light is shifted in phase due to oxygen quenching. […] Measurements were carried out by averaging five consecutive 4-s exposures. Measurements were taken every 15 min.
Bioreactors were perfused with different concentrations of compounds dissolved in culture medium. […] TC50 concentrations were determined using MATLAB by sigmoidal curve fitting. […] Time to onset was analyzed by MATLAB based on LPF and trend assessment.

HK-2 [4] = assay: Reduction of toxicity (rescue) experiment with glucose transport inhibitors, lipid accumulation (LipidTox); conditions: for lipotoxicity: cultures treated with the three nephrotoxic compounds
Experimental: Quantification of lipid accumulation was performed using HCS LipidTOX™ Phospholipidosis and Steatosis Detection Kit (ThermoFisher). Briefly, HK-2 and RPTEC cells were incubated with different concentrations of compounds dissolved in culture medium and 1× Phospholipidosis Detection Reagent for 48 h, subsequently fixed in 4% PFA. Cells were then stained with 1× Green LipidTOX™ for neutral lipids for 45 min and counterstained with 1 μg/mL Hoechst 33258. Staining intensity was normalized to number of Hoechst 33258 positive nuclei.
(§1) Empagliflozin (5 μM) a potent SGLT2 inhibitor, phloretin (1 mM) inhibits the apicobasal shuttling of the GLUT2, phlorizin (200 μM) is a mild inhibitor of SGLT1 and SGLT2. When all three inhibitors were used together, the mix was referred to as a cocktail. All experiments were performed on a 96 well plate, in triplicates with controls with no drugs, or inhibitors alone. First, cells were incubated for 1 hour with inhibitors alone and then drugs were added with inhibitors for 24 hours for LIVE DEAD assay or 48 hours for Lipid accumulation (LipidTox Assay). Cell viability was determined using LIVE/DEAD Cytotoxicity kit (Molecular Probes, USA) according to manufacturer directions. Briefly, cultures were incubated for 30 min with 2 μM calcein AM and 4 μM ethidium homodimer-1. Live cells were positive for green fluorescence due to hydrolysis of the acetoxymethyl ester group by intracellular esterases. Dead cells were positive for red fluorescence due to ethidium homodimer-1 binding intracellular DNA, possible in […]. Cellular viability was expressed as live over dead ratio and normalized based on negative (DMSO/DDW/PBS) controls. Fluorescence micrographs were analyzed for total fluorescence using ImageJ for 9 repeats for each sample. Error bars indicate ±SEM.
(§2) After staining, plates were mounted on the fluorescent microscope for quantification. Rescue was achieved when significant percentage of live cells and/or a reduced amounts of dead cells was observed as compared with cells treated with the drug only.

HK-2 [5] = assay: Reduction of toxicity (rescue) experiment with glucose transport inhibitors, LIVE/DEAD viability; conditions: for cell viability / cell death: cultures treated with nephrotoxic drug plus inhibitor vs drug alone
Experimental: as §1, §2

[6] = organoids under continuous perfusion

Molecule: Gentamicin
- Relative 2-NDBG accumulation, increase in glucose content ([1]; HK2 cells, sub-toxic 15 h exposure): 2 fold
- 2-NBDG fluorescence [1]: doubles
- lactate over glucose ratio drop (HK-2 organoids [2]; 32 mM Gentamicin, after 10 h exposure): 85%
- ATP production drop (HK-2 organoids [2]): 29%
- Lipogenesis increase (HK-2 organoids [2]): 438%
- glycolysis drop (HK-2 organoids [2]): 65%
- glucose uptake increase (HK-2 organoids [2]; after 31 hours): +196%
- lactate release decrease (HK-2 organoids [2]; after 31 hours): −65.2%
- Glutamine uptake change (HK-2 organoids [2]; at 31 hours): +14.1%
- Glutamine uptake change (HK-2 organoids [2]; at approximately 16 hours): +76%
- shift of organoid metabolism (HK-2 organoids [2]; bioreactor studies): significantly shift proximal tubular organoid metabolism towards lipogenesis
- Oxygen uptake drop (HK-2 organoids [3]): 10%
- oxygen response upon perfusion (HK-2 organoids [3]; [6]): acute jump in oxygen uptake within an hour after exposure
- viability at sub-toxic concentration (HK-2 organoids [3]; sub-toxic concentration used for flux analysis): > 95%

Molecule: N.N.[Cl][Pt][Cl] [Cisplatin]
- 2-NBDG fluorescence [1]: doubles
- ATP production drop (HK-2 organoids [2]): 53%
- Lipogenesis increase (HK-2 organoids [2]): 57.6% and 57%
- glycolysis drop (HK-2 organoids [2]): 98.4% and 98%
- Overall glutamine uptake (HK-2 organoids [2]; during exposure): remained constant
- Time to onset (TTO) of response (HK-2 organoids [3]; HK-2 organoids, increasing concentrations, dose-dependent decrease): 13 to 22 h
- Oxygen uptake drop (HK-2 organoids [3]): 36%
- time of induced damage following exposure (HK-2 organoids [3]; [6]): at least 14 hours

Molecule: O=C(CCc1ccc(O)cc1)c1c(O)cc(O)cc1O[C@@H]1O[C@H](CO)[C@@H](O)[C@H](O)[C@H]1O [Phlorizin]
- decrease in phospholipids content (HK-2 [4]; CsA treated cultures, compared to CsA alone): 2 fold
- lipotoxicity (HK-2 [4]): significantly alleviates lipotoxicity
- increase in cell viability (HK-2 [5]; CsA treated cultures, compared to cells treated with CsA alone): 2 fold
- cell viability / cell death (HK-2 [5]): restores cell viability

Molecule: O=C(CCc1ccc(O)cc1)c1c(O)cc(O)cc1O [Phloretin]
- lipotoxicity (HK-2 [4]): significantly alleviates lipotoxicity
- cell viability / cell death (HK-2 [5]): restores cell viability

Molecule: OC[C@H]1O[C@@H](c2ccc(Cl)c(Cc3ccc(O[C@H]4CCOC4)cc3)c2)[C@H](O)[C@@H](O)[C@@H]1O [Empagliflozin]
- lipotoxicity (HK-2 [4]): significantly alleviates lipotoxicity
- cell viability / cell death (HK-2 [5]): restores cell viability
